Laboratory results from patent EP0970067B1, “(METHYLSULFONYL)PHENYL-2-(5H)-FURANONES WITH OXYGEN LINK AS COX-2 INHIBITORS” (Merck Frosst Canada & Co., priority 1997, dated 1998).

Legend:
[1] = target: T1, COX-2 (Homo sapiens, UniProt P35354); assay: Human whole blood assay, COX-2 (LPS-induced PGE2 production); format: cell-based; parameters: endogenous in cells; host or cells: fresh heparinized human whole blood from volunteers, stimulated with LPS; details: LPS 100 µg/ml, 24 hours at 37°C, read-out: COX-2 (IC50) HWB
T1 sequence (P35354 18-604): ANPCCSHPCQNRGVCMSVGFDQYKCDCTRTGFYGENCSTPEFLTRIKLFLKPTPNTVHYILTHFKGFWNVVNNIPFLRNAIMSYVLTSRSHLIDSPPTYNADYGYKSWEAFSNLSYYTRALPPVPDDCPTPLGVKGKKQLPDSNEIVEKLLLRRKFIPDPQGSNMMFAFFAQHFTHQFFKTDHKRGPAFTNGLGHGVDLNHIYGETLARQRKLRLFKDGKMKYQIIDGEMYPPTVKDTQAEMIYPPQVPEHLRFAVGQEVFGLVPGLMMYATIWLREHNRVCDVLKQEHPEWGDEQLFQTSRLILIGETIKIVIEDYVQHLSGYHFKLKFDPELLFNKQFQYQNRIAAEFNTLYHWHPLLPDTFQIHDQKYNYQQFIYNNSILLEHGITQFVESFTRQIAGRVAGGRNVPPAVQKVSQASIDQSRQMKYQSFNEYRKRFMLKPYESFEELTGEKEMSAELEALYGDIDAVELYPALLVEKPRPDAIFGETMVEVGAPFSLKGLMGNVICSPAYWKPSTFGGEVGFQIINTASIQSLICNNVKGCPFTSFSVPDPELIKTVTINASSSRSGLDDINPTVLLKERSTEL
Description: As well, platelets in whole blood contain a large amount of the COX-1 enzyme. Immediately following blood clotting, platelets are activated through a thrombin-mediated mechanism. This reaction results in the production of thromboxane B2 (TxB2) via activation of COX-1. Thus, the effect of test compounds on TxB2 levels following blood clotting can be examined and used as an index for COX-1 activity. Therefore, the degree of selectivity by the test compound can be determined by measuring the levels of PGE2 after LPS induction (COX-2) and TxB2 following blood clotting (COX-1) in the same assay.
Fresh blood is collected in heparinized tubes by venipuncture from both male and female volunteers. The subjects have no apparent inflammatory conditions and have not taken any NSAIDs for at least 7 days prior to blood collection. Plasma is immediately obtained from a 2mL blood aliquot to use as blank (basal levels of PGE2). The remaining blood is incubated with LPS (100 µg/ml final concentration, Sigma Chem, #L-2630 from E. coli; diluted in 0.1% BSA (Phosphate buffered saline) for 5 minutes at room temperature. Five hundred µL aliquots of blood are incubated with either 2µL of vehicle (DMSO) or 2µL of a test compound at final concentrations varying from 10nM to 30µM for 24 hours at 37°C. At the end of the incubation, the blood is centrifuged at 12,000 x g for 5 minutes to obtain plasma. A 100µL aliquot of plasma is mixed with 400µL of methanol for protein precipitation. The supernatant is obtained and is assayed for PGE2 using a radioimmunoassay kit (Amersham, RPA#530) after conversion of PGE2 to its methyl oximate derivative according to the manufacturer's procedure.

[2] = system: Rat Paw Edema; assay: Rat paw edema assay (carrageenan-induced); format: in vivo, Male Sprague-Dawley rats; details: po, 1 hr before subplantar carrageenan, paw volume measured three hr later
Method: Male Sprague-Dawley rats (150-200 g) are fasted overnight and are given, po, either vehicle (1% methocel or 5% Tween 80) or a test compound. One hr later, a line is drawn using a permanent marker at the level above the ankle in one hind paw to define the area of the paw to be monitored. The paw volume (V0) is measured using a plethysmometer (Ugo-Basile, Italy) based on the principle of water displacement. The animals are then injected subplantarly with […] of 1% carrageenan solution in saline (FMC Corp, Maine) into the paw using an insulin syringe with a 25-gauge needle (i.e. […] carrageenan per paw). Three hr later, the paw volume (V3) is measured and the increases in paw volume (V3 - VO) are calculated. The animals are sacrificed by CO2 asphyxiation and the absence or presence of stomach lesions scored. Data is compared with the vehicle-control values and percent inhibition calculated. All treatment groups are coded to eliminate observer bias.

[3] = target: T1, COX-2; assay: Whole cell COX-2 assay using CHO transfected cell line (PGE2 radioimmunoassay); format: cell-based; parameters: expressed in transfected cells; host or cells: CHO [hCOX-2], stably transfected with pCDNAIII; details: CHO [hCOX-2] cells; PGE2 synthesis in response to arachidonic acid
Method: Compounds are tested as inhibitors of cyclooxygenase activity in whole cell cyclooxygenase assays. These assays measure prostaglandin E2 synthesis in response to arachidonic acid, using a radioimmunoassay. Cells used for these assays are chinese hamster ovary (CHO) cell lines which have been stably transfected with an eukaryotic expression vector […] containing either the human Cox-1 or Cox-2 CDNA's. U937 cell microsomes are also used to measure Cox-1 activity.
Chinese hamster ovary (CHO) cell lines which have been stably transfected with an eukaryotic expression vector pCDNAIII containing either the human COX-1 or COX-2 cDNA's are used for the assay. These cell lines are referred to as CHO [hCOX-1] and CHO [hCOX-2], respectively. For cyclooxygenase assays, CHO[hCOX-1] cells from suspension cultures and CHO[hCOX-2] cells prepared by trypsinization of adherent cultures are harvested by centrifugation (300 x g, 10 min) and washed once in HBSS containing 15 mM HEPES, pH 7.4, and resuspended in HBSS, 15 mM HEPES, pH 7.4, at a cell concentration of 1.5 x 10^6 cells/ml. Drugs to be tested are dissolved in DMSO to 66.7-fold the highest test drug concentration. […] Cells (0.3 x 10^6 cells in 200 µl) are preincubated with 3 µl of the test drug or DMSO vehicle for 15 min at 37°C. Working solutions of peroxide-free AA (5.5 µM and 110 µM AA for the CHO [hCOX-1] and CHO [COX-2] assays, respectively) are prepared by a 10-fold dilution of a concentrated AA solution in ethanol into HBSS containing 15 mM HEPES, pH 7.4.
In the assay, inhibition is determined by measuring the amount of prostaglandin E2 (PGE2) synthesized in the presence of arachidonic acid, cyclooxygenase-1 or cyclooxygenase-2 and a putative inhibitor.

C=C(C)COC1=C(c2ccc(S(C)(=O)=O)cc2)C(C)(C)OC1=O [Example 18, 5,5-dimethyl-3-(2-methylallyloxy)-4-(4-methylsulfonylphenyl)-5H-furan-2-one]
IC50 [1]: < 400 nM

C#CC(C)OC1=C(c2ccc(S(C)(=O)=O)cc2)C(C)(C)OC1=O (stereo not drawn) [Example 3, 5,5-Dimethyl-3-((1-methyl-2-propynyl)oxy)-4-(4-methylsulfonylphenyl)-5H-furan-2-one]
ED50 [2]: 2.4 mg/kg

CC1(C)OC(=O)C(OC2CCC(F)(F)CC2)=C1c1ccc(S(C)(=O)=O)cc1 [Example 17]
ED50 [2]: 0.9 mg/kg
IC50 [3]: 300 nM
IC50 [1]: 600 nM

CC1(C)OC(=O)C(OC2CCCC2(F)F)=C1c1ccc(S(C)(=O)=O)cc1 (stereo not drawn) [Example 25]
IC50 [1]: < 400 nM

CC(CO)OC1=C(c2ccc(S(C)(=O)=O)cc2)C(C)(C)OC1=O (stereo not drawn) [Example 12, 3-(2-Hydroxy-1-methylethoxy)-5,5-dimethyl-4-(4-methylsulfonyl-phenyl)-5H-furan-2-one]
IC50 [3]: 500 nM
IC50 [1]: 4700 nM

C=C(CF)COC1=C(c2ccc(S(C)(=O)=O)cc2)C(C)(C)OC1=O [Example 20, 3-{[2-(fluoromethyl)allyl]oxy}-5,5-dimethyl-4-(4-methylsulfonyl-phenyl)-5H-furan-2-one]
IC50 [3]: 200 nM
IC50 [1]: 600 nM

CC1(C)OC(=O)C(OCC2(CF)CC2)=C1c1ccc(S(C)(=O)=O)cc1 [Example 23, 3-{[1-(fluoromethyl)cyclopropyl]methoxy}-5,5-dimethyl-4-(4-methylsulfonylphenyl)-5H-furan-2-one]
ED50 [2]: 5.9 mg/kg

CC1(COC2=C(c3ccc(S(C)(=O)=O)cc3)C(C)(C)OC2=O)CC1 [Example 19, 5,5-Dimethyl-3-[(1-methylcyclopropyl)methoxy]-4-(4-methylsulfonyl-phenyl)-5H-furan-2-one]
IC50 [1]: < 400 nM

C=CCOC1=C(c2ccc(S(C)(=O)=O)cc2)C(C)(C)OC1=O [Example 15, 3-(Allyloxy)-5,5-dimethyl-4-(4-methylsulfonylphenyl)-5H-furan-2-one]
IC50 [3]: 200 nM
IC50 [1]: 1800 nM

C=CC(C)(O)COC1=C(c2ccc(S(C)(=O)=O)cc2)C(C)(C)OC1=O (stereo not drawn) [Example 5, 3-((2-hydroxy-2-methyl-3-butenyl)oxy)-5,5-dimethyl-4-(4-methyl-sulfonyl)phenyl-5H-furan-2-one]
IC50 [3]: 80 nM
IC50 [1]: 600 nM

C=C(C)OC1=C(c2ccc(S(C)(=O)=O)cc2)C(C)(C)OC1=O [Example 7, 3-(Isopropenyloxy)-5,5-dimethyl-4-(4-methylsulfonylphenyl)-5H-furan-2-one]
IC50 [3]: 70 nM
IC50 [1]: 2100 nM

CC1(C)OC(=O)C(OC2CCC3(CC2)OCCO3)=C1c1ccc(S(C)(=O)=O)cc1 [Example 16, 3-(1,4-dioxaspiro[4.5]dec-8-yloxy)-5,5-dimethyl-4-(4-methylsulfonyl-phenyl)-5H-furan-2-one]
IC50 [3]: 400 nM

CC1(C)OC(=O)C(OC2CCCC2=O)=C1c1ccc(S(C)(=O)=O)cc1 (stereo not drawn) [Example 24, 3-((2-oxocyclopentyl)oxy)-5,5-dimethyl-4-(4-methylsulfonylphenyl)-5H-furan-2-one]
IC50 [3]: 400 nM
IC50 [1]: 800 nM

C#CCOC1=C(c2ccc(S(C)(=O)=O)cc2)C(C)(C)OC1=O [Example 14, 5,5-Dimethyl-4-(4-methylsulfonylphenyl)3-(2-propynyloxy)-5H-furan-2-one]
IC50 [3]: 500 nM
IC50 [1]: 5100 nM

CC1(C)OC(=O)C(OC(C(F)(F)F)C(F)(F)F)=C1c1ccc(S(C)(=O)=O)cc1 [Example 2, 5,5-Dimethyl-3-(1,1,1,3,3,3-hexafluoropropoxy)-4-(4-methylsulfonyl-phenyl)-5H-furan-2-one]
ED50 [2]: 1 mg/kg

C[C@H](CO)COC1=C(c2ccc(S(C)(=O)=O)cc2)C(C)(C)OC1=O [Example 9, 3-(((2R)-3-hydroxy-2-methylpropyl)oxy)-5,5-dimethyl-4-(4-methylsulfonylphenyl)-5H-furan-2-one]
IC50 [3]: 400 nM
IC50 [1]: < 400 nM

CC1(C)OC(=O)C(OCC2(CO)CC2)=C1c1ccc(S(C)(=O)=O)cc1 [Example 21, 3-{[1-(hydroxymethyl)cyclopropyl]methoxy}-5,5-dimethyl-4-(4-methylsulfonylphenyl)-2-5H-furan-2-one]
IC50 [3]: 600 nM
IC50 [1]: 900 nM

C[C@@H](CO)COC1=C(c2ccc(S(C)(=O)=O)cc2)C(C)(C)OC1=O [Example 8, 3-(((2S)-3-hydroxy-2-methylpropyl)oxy)-5,5-dimethyl-4(4-methyl-sulfonylphenyl)-5H-furan-2-one]
ED50 [2]: 3.1 mg/kg
IC50 [3]: 500 nM
IC50 [1]: 500 nM

C=CC(C)OC1=C(c2ccc(S(C)(=O)=O)cc2)C(C)(C)OC1=O (stereo not drawn) [Example 1, 5,5-Dimethyl-3-((1-methylallyl)oxy)-4-(4-methylsulfonylphenyl)-5H-furan-2-one]
IC50 [3]: 50 nM
IC50 [1]: 1900 nM
